Like-named read-outs stand apart in the source and are kept apart here.
Key:
[1] = molecular target: T1, CMKLR1 (Homo sapiens, UniProt Q99788); experiment: β-arrestin recruitment assay (chemerin-mediated β-arrestin2 association with CMKLR1); format: cell-based
T1 construct: host or cells: CHO-K1 (PathHunter)
T1 sequence (Q99788 1-373): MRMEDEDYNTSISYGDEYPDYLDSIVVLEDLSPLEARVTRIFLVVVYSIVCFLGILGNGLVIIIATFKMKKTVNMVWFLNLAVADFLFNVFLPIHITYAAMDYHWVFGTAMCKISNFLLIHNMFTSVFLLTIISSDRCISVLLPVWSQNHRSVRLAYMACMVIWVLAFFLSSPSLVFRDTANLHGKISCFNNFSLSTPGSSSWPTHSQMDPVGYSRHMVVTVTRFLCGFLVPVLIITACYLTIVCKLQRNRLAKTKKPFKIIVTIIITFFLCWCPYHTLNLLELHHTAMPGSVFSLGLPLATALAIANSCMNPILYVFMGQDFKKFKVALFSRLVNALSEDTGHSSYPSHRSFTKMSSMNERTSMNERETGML
Method: (§1) FIG. 15A-15D. […] IC50 values were determined based on 6-point dose-response curves for each compound. (FIG. 15A) α-NETA. […] (FIG. 15A-15C) mean±SEM, n=3-18 independent experiments. […] 0.2 ml each compound (in 10% captisol) or vehicle control was administered by oral gavage beginning one day prior to psoriasis induction. Back skin thickness was measured daily and normalized to day 0. mean±SEM, n=10 mice for vehicle and α-NETA groups pooled from two independent trials; n=3 mice for (27) and (6) from one trial.
Cell culture. […] DiscoverX PathHunter® CHO-K1 CMKLR1 β-Arrestin Cells were grown in RPMI lacking phenol red (Gibco, Life Technologies), supplemented with L-glutamine, penicillin-streptomycin, sodium pyruvate, non-essential amino acid, BCS, hygromycin, and G418-sulfate.
β-arrestin recruitment assay. CMKLR1-CHO-β-Arrestin cells were seeded in 96 well plates at 1×10^5 cell/ml-100 ul/well and incubated overnight at 37° C., 5% CO2. The next day, media was removed and cells were pre-incubated in PBS with α-NETA or test compound (95 ul/well) in a 6 point dose response curve from 100 μM to 0.3 μM for 10 min at RT. (α-NETA and test compounds were reconstituted in DMSO; final DMSO concentration in each well was 0.1%). After 10 min, 5 ul of recombinant human chemerin (R&D Systems) at a final concentration of 20 nM was added to each well. Plates were incubated for 90 min at 37° C., 5% CO2. Media was then removed and 50 ul of chemiluminescent substrate (Tropix Gal-Screen, Applied Biosciences) was added. The plate was incubated for 1 hr at RT and luminescence was detected using the SpectraMax M5 plate reader (Molecular Devices). For each independent trial (single replicate dose curves), data was normalized to the maximum signal per compound tested and an IC50 value was generated using GraphPad Prism software. The average IC50 value for n independent trials (as specified in the table) is reported.

[2] = molecular target: T2, (hu)CMKLR1 L1.2 cells (Homo sapiens, UniProt Q99788); experiment: Chemotaxis assay (chemerin-dependent CMKLR1+ cell migration); format: cell-based; settings: for IC50: Table 3, migration toward huChemerin, 2 h transwell, read-out: Chemotaxis IC50 μM mean ± SEM (n)
T2 construct: expressed in transfected cells; host or cells: L1.2 pre-B cell lymphoma cells
T2 sequence (Q99788 1-373): T1 sequence (Q99788 1-373)
Method: Cell culture. (hu)CMKLR1 transfectants (generated in L1.2 pre-B cell lymphoma cells) were grown in RPMI 1640 (Corning) supplemented with L-glutamine, penicillin-streptomycin, and 10% BCS and G418-sulfate (KSE Scientific). DiscoverX PathHunter® CHO-K1 CMKLR1 β-Arrestin Cells were grown in RPMI lacking phenol red (Gibco, Life Technologies), supplemented with L-glutamine, penicillin-streptomycin, sodium pyruvate, non-essential amino acid, BCS, hygromycin, and G418-sulfate.
Chemotaxis assay. (hu)CMKLR1 L1.2 cells at 1×10^6 cell/ml were treated with 5 mM sodium butyrate (Sigma) overnight to induce hCMKLR1 expression. The next day, cells were washed in migration media (RPMI+0.5% BSA) and resuspended at 1.5-3×10^6 cell/ml. Cells were pre-incubated at RT for 10 min with various concentrations of α-NETA or test compounds (α-NETA and test compounds were reconstituted in DMSO; final DMSO concentration in each well was 0.1%). 100 ul of cells were added to the upper chamber of a 24-well transwell plate (5 um pore size, Costar). Cells were allowed to migrate toward huChemerin ([…] in migration media, bottom chamber) for 2 h, 37° C., 5% CO2. The number of migrated cells was quantified by flow cytometry (BD LSR2), and live cells were distinguished based on FSC×SSC properties. The background for this assay was typically low with 0 cells migrating to the buffer alone. For each independent trial, data was normalized to the maximum migration per compound tested and an IC50 value was generated using GraphPad Prism software. The average IC50 value for n independent trials (as specified in the table) is reported.

[3] = test system: IMQ-induced psoriasis in mice; experiment: IMQ-induced psoriasis model; format: in vivo, mouse; settings: for clinical features of experimental psoriasis: oral gavage in 10% captisol, FIG. 15D
Method: FIG. 11A-11G. […] Representative images of the same mouse shown over time. […] Mice were treated twice daily with IMQ±dexamethasone (DEX, 200 ug/mouse) 1 h prior to IMQ treatment. […] (FIG. 11G) NK cell (CD45+DX5+CD11b-CD3-CD19-) infiltration into lesional or non-lesional adjacent skin was determined by flow cytometry (6 day timepoint) for IMQ-treated WT and chemerin KO mice. mean±SEM, n=4 mice per genotype, ***p<0.005 by 2-tailed t-test; **p<0.01 by 2-tailed t-test; *p<0.05 by 1-tailed t-test.
FIG. 13A-13D. […] Fold change with respect to day 0 measurements are shown. […] For A-C, n=3 untreated, n=5 IMQ-treated mice of each genotype, mean±SEM, *p<0.05 by 2-tailed t-test.
as §1

[4] = test system: EAE in C57BL/6 mice; experiment: EAE induced by MOG35-55/CFA immunization; format: in vivo, mouse; settings: Table 4, 10 mg/kg daily to D 21, n = 8; for Maximum Score (Mean ± SEM): clinical score 0-5; for AUC (Mean ± SEM): mean clinical score × day
Method: FIG. 1A-1D. […] (FIG. 1D) The integrated clinical score over time for each animal was calculated as area under the curve (AUC).
EAE. […] CFA consisted of 5 mg/ml mTB (Mycobacterium-tuberculosis H37 Ra, BD Difco) in IFA (Incomplete Freund's Adjuvant, Sigma). MOG35-55 was reconstituted at 2 mg/ml in PBS. Mice also received 200 ng pertussis toxin (List Biological Laboratories, Inc) by i.p. injection at the time of immunization and two days later. […] For a direct comparison to α-NETA, the DMF and compound doses were also 10 mg/kg in 10% captisol. Mice were monitored daily for clinical disease and scored (0=normal/healthy, 1=limp tail, 2=hindlimb weakness, 3=hindlimb paralysis, 4=hindlimb and forelimb paralysis, 5=moribund/dead).

[5] = Table 2, tertiary amines, chemerin 20 nM, CHO transfectants, read-out: β-arrestin IC50 μM mean ± SEM (n)
[6] = Table 3, quaternary ammonium salts, chemerin 20 nM, CHO transfectants, read-out: β-arrestin IC50 μM mean ± SEM (n)
[7] = values given in running text b220, read-out: β-arrestin2 assay IC50

| SMILES | IC50 [1, 5] [µM] | IC50 [1, 6] [µM] | IC50 [2] [µM] | other results |
| --- | --- | --- | --- | --- |
| CN(C)CCC(=O)C1CCCCC1 [Compound 20] | > 100 |  |  | activity in β-arrestin2 assay [1]: complete loss of activity |
| COc1ccc(C(=O)CC[N+](C)(C)C)c(OC)c1 [Compound 29] |  | 4.8 ± 1.6 | 17.4 ± 2.2 |  |
| CCN(C)CCC(=O)c1ccccc1 [Compound 13] | 16.8 ± 8.3 |  |  |  |
| C[C@@H]1C[C@H]2[C@@H]3CCC4=CC(=O)C=C[C@]4(C)[C@@]3(F)[C@@H](O)C[C@]2(C)[C@@]1(O)C(=O)CO [dexamethasone, reference compound] |  |  |  | percent inhibition of skin thickening ([3]; day 5 post-IMQ, 200 ug/mouse 1 h prior to IMQ): 62±6% |
| C[N+](C)(C)CCC(=O)c1ccc2ccccc2c1 [Compound 23] |  | 2.5 ± 0.9 | 24.1 | IC50 [1, 7]: 3.1 µM |
| CCN(C)CCC(=O)c1cccc2ccccc12 [Compound 4] | 17.9 |  |  |  |
| C[N+](C)(C)CCC(=O)C1CCCCC1 [Compound 25] |  |  | > 100 | IC50 [1, 7]: 11.9 µM |
| COc1ccccc1C(=O)CC[N+](C)(C)C [Compound 26] |  | 2.9 ± 1.6 | 7.2 | activity in β-arrestin2 assay [1]: highly active; activity in chemotaxis assay [2]: highly active |
| COc1cccc(C(=O)CC[N+](C)(C)C)c1 [Compound 28] |  | 3.8 ± 1.7 | 14.6 ± 4.8 |  |
| C[N+](C)(C)CCS(=O)(=O)c1ccccc1.[I-] [Compound 35] |  |  |  | activity in β-arrestin2 assay [1]: inactive |
| COc1cc(OC)cc(C(=O)CC[N+](C)(C)C)c1 [Compound 31] |  | 6 ± 2.2 | > 100 |  |
| CN(C)CCC(=O)c1ccccc1 [Compound 12] | > 100 |  |  |  |
| CCCCN(C)CCC(=O)c1ccccc1 [Compound 15] | > 100 |  |  |  |

Further lines, with some results ahead:

| IC50 [1, 5] [µM] | IC50 [1, 6] [µM] | IC50 [2] [µM] | SMILES | other results |
| --- | --- | --- | --- | --- |
| > 100 |  |  | COc1ccccc1C(=O)CCN(C)C [Compound 16] |  |
| 18.8 |  |  | CN(C)CCC(=O)c1cccc2ccccc12 [Compound 3] |  |
| 8.9 ± 2.4 |  |  | CCN(CC)CCC(=O)c1cccc2ccccc12 [Compound 5] |  |
|  | 5.6 ± 0.7 | > 100 | C[N+](C)(C)CCC(=O)c1ccccc1 [Compound 24] | activity in β-arrestin2 assay [1]: showed activity; IC50 [1, 7]: 4.3 µM; activity in chemotaxis assay [2]: did not show any activity |
| 64 |  |  | COc1cccc(C(=O)CCN(C)C)c1 [Compound 18] |  |
| 77.8 |  |  | CCN(CC)CCC(=O)c1ccccc1 [Compound 14] |  |
| 44.5 |  |  | CCCCN(C)CCC(=O)c1ccc2ccccc2c1 [Compound 10] |  |
| 10.3 ± 4.5 |  |  | COc1cccc(OC)c1C(=O)CCN(C)C [Compound 19] |  |
| > 100 |  |  | COc1ccc(C(=O)CCN(C)C)cc1 [Compound 17] |  |
| 71.3 |  |  | CCN(CC)CCC(=O)c1ccc2ccccc2c1 [Compound 8] |  |
|  | 0.6 ± 0.3 | 10.7 | COc1ccc2ccccc2c1C(=O)CC[N+](C)(C)C [Compound 33] |  |
| 39.6 |  |  | CCN(C)CCC(=O)c1ccc2ccccc2c1 [Compound 9] |  |
|  | 1.9 ± 0.2 | 4.5 ± 1.5 | COc1ccc(C(=O)CC[N+](C)(C)C)cc1 [Compound 27] | Maximum Score (Mean ± SEM) [4]: 2.1 ± 0.1¶; AUC (Mean ± SEM) [4]: 24.3 ± 4.2; Day of onset (Mean ± SEM) [4]: 16.0 ± 0.9; activity in β-arrestin2 assay [1]: highly active; clinical features of experimental psoriasis [3]: suppressed; activity in chemotaxis assay [2]: highly active |
|  | 2.1 ± 1.1 | 6.8 | COc1cccc(OC)c1C(=O)CC[N+](C)(C)C.[I-] [Compound 30] | activity in β-arrestin2 assay [1]: highly active; activity in chemotaxis assay [2]: highly active |
| 6.2 ± 2.5 |  |  | COc1ccc2ccccc2c1C(=O)CCN(C)C [Compound 6] | Maximum Score (Mean ± SEM) [4]: 2.4 ± 0.2; AUC (Mean ± SEM) [4]: 25.2 ± 4.0; Day of onset (Mean ± SEM) [4]: 14.5 ± 0.4; clinical features of experimental psoriasis [3]: suppressed |
|  | 1.5 ± 0.3 | 20 ± 6.2 | COc1ccc2cc(C(=O)CC[N+](C)(C)C)ccc2c1 [Compound 32] |  |
| 18.5 |  |  | CN(C)CCC(=O)c1ccc2ccccc2c1 [Compound 7] |  |
| > 100 |  |  | COc1ccc2cc(C(=O)CCN(C)C)ccc2c1 [Compound 11] |  |

From US11730705B2, “Small molecule CMKLR1 antagonists in inflammatory disease” (The Board of Trustees of the Leland Stanford Junior …, priority 2019, dated 2023)
